From patent publication US20220331348A1, “METHOD OF PREPARING PENTACYCLIC TRITERPENOID SAPONINS AND DRUG COMPOSITION” (CHINA PHARMACEUTICAL UNIVERSITY, priority 2019, published 2022)

Experiments:
AMPK in Huh-7 cells = test: Activation activity on AMPK in Huh-7 cells (Western Blot); format: cell-based; conditions: 10 μM, 12 h, Western Blot gray scale, relative to DMSO = 1
Method: The activation activity of a compound on AMPK in Huh-7 cells was detected by using Western Blot.
Cell culture conditions: Huh-7 cells were cultured in an incubator with 5% CO2 at 37° C. in DMEM complete medium (containing 10% fetal calf serum and 1% streptomycin/penicillin).
Antibody: anti-AMPK (CST, 2532S); anti-pAMPK (CST, 2535S).
Western Blot experiment: the influence of the compound on phosphorylation level of the AMPK in the Huh-7 cells was detected: cells with more than 90% cells alive were taken for the experiment. In a 12-well plate, the Huh-7 cells were plated in the plate at 250000 cells per well, the plate was placed in the incubator with 5% CO2 at 37° C. for culture, an original culture medium was discarded after 12 h, a complete medium containing the pentacyclic triterpenoid saponin was added, a final concentration of subject pentacyclic triterpenoid saponin was set to be 10 μM, and an administration time was set to be 12 h. A positive control compound employs AICAR (100 μM), metformin (70 μM) or A-769662 (100 μM). Then proteins were extracted for Western Blot detection.
Experimental result: a Western Blot experimental result was subjected to gray scale scanning, a p-AMPK/AMPK ratio of negative control DMSO was defined as 1, and a p-AMPK/AMPK ratio of the subject compound was a relative ratio of a negative control group. The larger the numerical value was, the stronger the activation activity of the AMPK of the compound was.

[1] = system: TNBS modeled Crohn's disease model mice; test: 2,4,6-trinitrobenzene sulfonic acid (TNBS) modeled Crohn's disease model mice; format: in vivo, mouse; conditions: dose not given; for expression level of inflammatory factor IL-1β / expression level of inflammatory factor TNF-α: vs model group
Method: C57BL/6 male mice with 6-8 weeks old were selected and randomly divided into a control group, a mode group, a treatment group and a positive control group. Expect for the control group, after the mice in the rest groups anesthetized with isoflurane, hoses were carefully inserted into colons of the mice from anuses, and […] of 1.5% 2,4,6-trinitrobenzene sulfonic acid (TNBS) was slowly injected. Before the hoses were pulled out, the mice were placed upside down for 1 min. First intragastric administration was conducted at the day of enema treatment, the mice in the control group and the model group were orally administered with carboxymethyl cellulose sodium as a placebo, the mice in the treatment group were orally administered with the ziyuglycoside II (purchased from Shanghai Boka Chemistry Technology Co., Ltd) (with a dosage of 5 mg/kg), and the mice in the positive drug group were orally administered with 5-aminosalicylic acid as a clinical drug (5-ASA, purchased from Shanghai Sangon Biological Engineering Co., Ltd) (with a dosage of 100 mg/kg). Administration was continuously conducted for 7 days. In the administration process, the states of the mice were observed every day, and weight changes of the mice were recorded.
Differences in weight change of the mice in various groups were compared, from which, ziyuglycoside II has the treatment effect on the 2, 4, 6-trinitrobenzene sulfonic acid (TNBS) modeled Crohn's disease model mice.
The above mice were sacrificed by cervical dislocation at day 8, colon tissues were harvested, lengths of the colon tissues were measured for statistical summary, and differences in colon length of various groups were compared, from which, the ziyuglycoside II has significant treatment effect on the Crohn's disease model mice. […] 10 mg of proximal rectum segments of the colon tissues of the above mice were selected, PBS was added for homogenization, and centrifugation was conducted for taking a supernate. The supernate was subjected to ELISA detection, and protein quantification was conducted for inflammatory factors TNF- and IL-1. […] Myeloperoxidase (MPO) is an enzyme specific to neutrophils, and the amount of the neutrophils in the intestinal tracts may be reflected by detecting the MPO level. 5 mg of proximal rectum segments of the colon tissues of the above mice were selected, PBS was added for homogenization, and the content of the MPO in a homogenate was detected with a MPO kit (purchased from Nanjing Jiancheng Bioengineering Institute). […] Therefore, the ziyuglycoside II is expected to be useful for preparing the drug for preventing or treating the inflammatory bowel diseases such as the Crohn's disease.

[2] = system: ulcerative colitis model mice induced by DSS; test: Dextran sulphate sodium salt (DSS) induced ulcerative colitis model mice; format: in vivo, mouse; conditions: DSS-induced mice; dose not given; vs model group
Method: C57BL/6 male mice with 6-8 weeks old were selected; a control group was fed with purified water; and a model group, a treatment group and a positive control group were fed with purified water containing 2% dextran sulphate sodium salt (DSS) (36000-50000 M.Wt) for 7 days and then with the purified water for 3 days, and drug intervention was conducted at the same time. The mice in the control group and the model group were orally administered with carboxymethyl cellulose sodium as a placebo, the mice in the treatment group were orally administered with the ziyuglycoside II (purchased from Shanghai Boka Chemistry Technology Co., Ltd) (with a dosage of 5 mg/kg), and the mice in the positive control group were orally administered with 5-aminosalicylic acid as a clinical drug (5-ASA, purchased from Shanghai Sangon Biological Engineering Co., Ltd) (with a dosage of 100 mg/kg). In the administration process, weight changes, feces characters and hematochezia conditions of the mice were observed and recorded every day and were scored, and disease activity indexes were calculated (Disease activity index, DAI).
A scoring rule and a calculation method were as follows: DAT=(weight score+diarrhea score+occult blood score)/3, wherein weight score: 0 (weight gained or unchanged), 1 (weight lost by 1-5%), 2 (weight lost by 6-10%), 3 (weight lost by 11-15%), 4 (weight lost by 15% or above); diarrhea score: 0 (normal feces), 2 (soft feces), 4 (feces sticking anuses or diarrhea); and occult blood score: 0 (negative occult blood), 2 (positive occult blood), and 4 (visible bleeding). Comparing differences in DAI of various groups, it can be known that the ziyuglycoside II has significant prevention and treatment effects on ulcerative colitis of the mice modeled by the dextran sulphate sodium salt (DSS).
The above mice were sacrificed by cervical dislocation at day 11, colon tissues were harvested, lengths of the colon tissues were measured for statistical summary, and differences in colon length of various groups were compared, from which, the ziyuglycoside II has significant prevention and treatment effect on the ulcerative colitis model mice.
Middle segments, with lengths of about 1 cm, of the colon tissues of the above mice were selected, soaked in a formalin solution for fixing overnight, embedded with paraffin and sliced, and the slices were subjected to HE staining. […] Particularly, compared with the positive drug group, the ziyuglycoside II has the advantage of maintaining a thickness of a muscular layer.
10 mg of proximal rectum segments of the colon tissues of the above mice were selected, PBS was added for homogenization, and centrifugation was conducted for taking a supernate. The supernate was subjected to ELISA detection, and protein quantification was conducted for inflammatory factors TNF-α and IL-lb.
10 mg of colon tissues of the above mice were selected for detection of ROS therein.
When the ulcerative colitis occurs, the inflammatory factors may destruct tight junction between intestinal tracts, and destruction of the tight junction enables functions of mucosal barriers to be lost and accelerates development of the diseases. 5 mg of colon tissues of the above mice were selected for qPCR analysis. […] This hints that the ziyuglycoside II further has the efficacy of increasing the expression level of the tight junction and then protecting a structure of each colon. […] Therefore, the ziyuglycoside II is expected to be useful for preparing the drug for preventing or treating the inflammatory bowel diseases such as the ulcerative colitis.

## CC1(C)CC[C@]2(C(=O)O[C@@H]3O[C@H](CO)[C@@H](O)[C@H](O)[C@H]3O)CC[C@]3(C)C(=CC[C@@H]4[C@@]5(C)CC[C@H](O[C@@H]6O[C@H](C(=O)O)[C@@H](O)[C@H](O)[C@H]6O[C@@H]6O[C@H](CO)[C@@H](O)[C@H](O)[C@H]6O)C(C)(C)[C@@H]5CC[C@]43C)[C@@H]2C1 [(I), ginsenoside Ro]
AMPK in Huh-7 cells
  pAMPK/AMPK ratio: 2.39
[1]
  colon length of the treatment group compared with the control group: nearly no difference
  expression level of inflammatory factor IL-1β: significantly lower than those of the model group
  expression level of inflammatory factor TNF-α: significantly lower than those of the model group
[2]
  DAI scores of the treatment group: obviously lower than those of the model group

## CC1(C)CC[C@]2(C(=O)O[C@@H]3O[C@H](CO[C@@H]4O[C@H](CO)[C@@H](O)[C@H](O)[C@H]4O)[C@@H](O)[C@H](O)[C@H]3O)CC[C@]3(C)C(=CC[C@@H]4[C@@]5(C)CC[C@H](O[C@@H]6OC[C@H](O)[C@H](O)[C@H]6O)[C@@](C)(CO)[C@@H]5CC[C@]43C)[C@@H]2C1 [(II), asperosaponin VI]
AMPK in Huh-7 cells
  pAMPK/AMPK ratio: 2.90
[1]
  colon length of the treatment group compared with the control group: nearly no difference
  expression level of inflammatory factor IL-1β: significantly lower than those of the model group
  expression level of inflammatory factor TNF-α: significantly lower than those of the model group
[2]
  DAI scores of the treatment group: obviously lower than those of the model group

## C[C@H]1O[C@@H](O[C@H]2CC[C@@]3(C)[C@@H](CC[C@]4(C)[C@@H]3C=C[C@]35OC[C@@]6(CCC(C)(C)C[C@H]63)[C@@H](O)C[C@]54C)[C@]2(C)CO)[C@H](O)[C@@H](O[C@@H]2O[C@H](CO)[C@@H](O)[C@H](O)[C@H]2O)[C@H]1O [(VII), saikosaponin A]
AMPK in Huh-7 cells
  pAMPK/AMPK ratio: 1.76
[1]
  colon length of the treatment group compared with the control group: nearly no difference
  expression level of inflammatory factor IL-1β: significantly lower than those of the model group
  expression level of inflammatory factor TNF-α: significantly lower than those of the model group
[2]
  DAI scores of the treatment group: obviously lower than those of the model group

## C[C@H]1O[C@@H](O[C@H]2CC[C@@]3(C)[C@@H](CC[C@]4(C)[C@@H]3C=C[C@]35OC[C@@]6(CCC(C)(C)C[C@H]63)[C@H](O)C[C@]54C)[C@]2(C)CO)[C@H](O)[C@@H](O[C@@H]2O[C@H](CO)[C@@H](O)[C@H](O)[C@H]2O)[C@H]1O [(VIII), saikosaponin D]
AMPK in Huh-7 cells
  pAMPK/AMPK ratio: 2.0
[1]
  colon length of the treatment group compared with the control group: nearly no difference
  expression level of inflammatory factor IL-1β: significantly lower than those of the model group
  expression level of inflammatory factor TNF-α: significantly lower than those of the model group
[2]
  DAI scores of the treatment group: obviously lower than those of the model group

## C[C@@H]1O[C@@H](O[C@H]2[C@H](O[C@H]3CC[C@@]4(C)[C@@H](CC[C@]5(C)[C@@H]4CC=C4[C@@H]6CC(C)(C)CC[C@]6(C(=O)O)CC[C@]45C)[C@]3(C)CO)OC[C@H](O)[C@@H]2O)[C@H](O)[C@H](O)[C@H]1O [(X), α-hederin]
AMPK in Huh-7 cells
  pAMPK/AMPK ratio: 3.33
[1]
  colon length of the treatment group compared with the control group: nearly no difference
  expression level of inflammatory factor IL-1β: significantly lower than those of the model group
  expression level of inflammatory factor TNF-α: significantly lower than those of the model group
[2]
  DAI scores of the treatment group: obviously lower than those of the model group

## C[C@@H]1O[C@@H](O[C@H]2[C@H](O[C@H]3CC[C@@]4(C)[C@@H](CC[C@]5(C)[C@@H]4CC=C4[C@@H]6CC(C)(C)CC[C@]6(C(=O)O[C@@H]6O[C@H](CO[C@@H]7O[C@H](CO)[C@@H](O[C@@H]8O[C@@H](C)[C@H](O)[C@@H](O)[C@H]8O)[C@H](O)[C@H]7O)[C@@H](O)[C@H](O)[C@H]6O)CC[C@]45C)[C@]3(C)CO)OC[C@H](O)[C@@H]2O)[C@H](O)[C@H](O)[C@H]1O [(XI), hederacoside C]
AMPK in Huh-7 cells
  pAMPK/AMPK ratio: 1.95
[1]
  colon length of the treatment group compared with the control group: nearly no difference
  expression level of inflammatory factor IL-1β: significantly lower than those of the model group
  expression level of inflammatory factor TNF-α: significantly lower than those of the model group
[2]
  DAI scores of the treatment group: obviously lower than those of the model group

## C[C@@H]1CC[C@]2(C(=O)O[C@@H]3O[C@H](CO)[C@@H](O)[C@H](O)[C@H]3O)CC[C@]3(C)C(=CC[C@@H]4[C@@]5(C)CC[C@H](O[C@@H]6OC[C@H](O)[C@H](O)[C@H]6O)C(C)(C)[C@@H]5CC[C@]43C)[C@@H]2[C@]1(C)O [(XII), ziyuglycoside I]
AMPK in Huh-7 cells
  pAMPK/AMPK ratio: 2.45
[1]
  colon length of the treatment group compared with the control group: nearly no difference
  expression level of inflammatory factor IL-1β: significantly lower than those of the model group
  expression level of inflammatory factor TNF-α: significantly lower than those of the model group
[2]
  DAI scores of the treatment group: obviously lower than those of the model group
